Measured values: patent US6762029B2, “Methods of identifying agents that modulate P2Y12 receptor activity” (Portola Pharmaceuticals, Inc., priority 1999, dated 2004)

How the values were obtained:
[1] = tested on: P2Y12 receptor; assay: Two-electrode voltage-clamp of Xenopus oocytes expressing P2Y12 with Kir3.1 and 3.4: agonist-stimulated potassium currents; type: cell-based; settings: 10 μM each, FIG. 1B
Protocol: (§1) Defolliculated Xenopus laevis oocytes were injected with a positive 500 clone pool (10 ng), rP2Y12 (10 pg), hP2Y12 (50 pg), Kir3.1, Kir3.4, PTX and hm2 (1 ng each) cRNAs as indicated. Three to seven days after injection, two-electrode voltage-clamp recordings were performed using a Geneclamp 500 amplifier (Axon Instruments) and a Maclab A/D converter (Maclab). Membrane potentials were clamped at −70 mV while the recording chamber was perfused at a rate of 2 ml/min with a solution containing (in mM) 70 KCl, 20 NaCl, 3 MgCl2, 5 HEPES, pH 7.4, at room temperature. The KCl was replaced with NaCl to examine responses in zero potassium. Agonists and antagonists (Roche Molecular Biochemistry or Sigma) were diluted in the recording solution. Experiments using C1330-7 included 0.1% dimethylsulfoxide to enhance its solubility in the perfusate.
(§2) FIG. 1(A). Activation of potassium-dependent currents in Xenopus oocytes expressing P2Y12 with Kir3.1 and 3.4. ADP (10 μM) was applied (short bars) in the presence or absence (long bar) of extracellular potassium (70 mM) while recording membrane currents in the whole-cell voltage clamp configuration. […] (B) ADP-selective stimulation of potassium channel-dependent currents by P2Y12 occurs via a pertussis toxin-sensitive pathway. UDP, adenosine (A), ATP-α-S or ADP (10 μM each) were sequentially applied to oocytes expressing the rat or human receptor with or without Kir3.1, 3.4 and pertussis toxin (PTX). (C) The agonist profile of P2Y12 recapitulates that observed for the Gi-coupled platelet ADP receptor. Concentration-response curves for ADP and 2MeSADP are presented. Membrane currents were normalized in each oocyte to a response obtained with 10 μM ADP. Each point represents the mean values (+/−s.d.) from five independent oocytes. The Hill equation was used to fit the response data.

[2] = biological target: T1, hP2Y12 (Homo sapiens, UniProt Q9H244); assay: Two-electrode voltage-clamp of Xenopus oocytes expressing hP2Y12 with Kir3.1 and 3.4: inhibition of ADP-stimulated potassium currents; type: cell-based
T1 construct: expressed in transfected cells; host or cells: Xenopus laevis oocytes injected with hP2Y12 cRNA (50 pg) plus Kir3.1 and Kir3.4 cRNAs
Protocol: as §1
(§3) FIG. 2(A). […] The dot (.) indicates the start of a 15 sec application of ADP, while bars denote co-application with the antagonist. (B) 2MeSAMP and C1330-7 inhibition curves. Current responses were normalized to that elicited by ADP (500 nM) alone in each oocyte and plotted as the mean+/−s.d. Curves were fitted to the data using the Hill equation (n=5 independent oocytes for each point). (C) Selective ablation of P2Y12 but not m2 muscarinic receptor signaling by the thiol reagent pCMBS. ADP (10 μM), carbachol (1 μM), and pCMBS (1 mM) were applied sequentially to an oocyte expressing both receptors concurrently with Kir3.1 and 3.4. Bars indicate periods of drug application (10 sec).

[3] = biological target: T2, rat P2Y12 (Rattus norvegicus, UniProt Q9EPX4); assay: Two-electrode voltage-clamp of Xenopus oocytes expressing rat P2Y12: inhibition of ADP-evoked signal; type: cell-based
T2 construct: expressed in transfected cells; host or cells: Xenopus laevis oocytes injected with rP2Y12 cRNA (10 pg) plus Kir3.1 and Kir3.4 cRNAs
Protocol: as §1

[4] = biological target: T1, hP2Y12; assay: [3H]2MeSADP binding to membranes of COS7 cells transiently transfected with hP2Y12 (rapid filtration); settings: 4 C, 30 minutes
Protocol: hP2Y12 cDNA was transiently transfected into cos7 cells and crude membranes were prepared using standard procedures. Binding of 1 nM [^3H]2MeSADP at various membrane protein concentrations and in the absence and presence of various inhibitors was determined at 4 C. for 30 minutes in a rapid filtration assay (triplicates). Non-specific binding was determined with 10 uM 2MeSADP and subtracted from all data. Each experiment included membranes from untransfected cells.

[5] = biological target: T1, hP2Y12; assay: Forskolin-stimulated cAMP accumulation in CHO cells stably expressing hP2Y12; type: cell-based
Protocol: Chinese Hamster Ovary (CHO) cells or rat 2-9 fibroblasts, which are null for Gi-linked purinergic receptors, were transfected with hP2Y12 or rP2Y12 cDNA's, respectively using FuGene reagent (Roche), and cells were cultured in the presence of G418 for 2 weeks to select for stable transfectants. For cAMP assays, stably transfected CHO cells expressing the hP2Y12 plasmid were plated in 12-well dishes. Forty-eight hours later media was removed from the cells and replaced with serum-free media containing IBMX (0.25 mM final) and incubated at 37° C. for 5 minutes. Cells were incubated for an additional 5 min with 10 μM forskolin, as well as the indicated agonists and antagonists. Pertussis toxin treatment (30 ng/ml) occurred for 20 hrs at 37° C. prior to assay. Cyclic AMP levels were determined from aliquots of cell extracts in a radioimmunoassay (Amersham Biotrak cAMP ^125I assay system).
FIG. 3(A). Receptor coupling to adenylyl cyclase was assessed as ADP-mediated (0.1-10 μM) inhibition of forskolin-stimulated (10 μM) cAMP accumulation (CON=control, normalized to 100%). (B) The effect of the specific antagonists 2MeSAMP (2-MES)(50 μM) and C1330-7 (50 μM) on repression of ADP-mediated (1 μM) forskolin-stimulated cAMP levels. (C) Effect of pertussis toxin (PTX) pretreatment on the inhibition by 10 μM ADP of forskolin-stimulated cAMP levels. Results are the mean+/−s.d. of three representative experiments performed in triplicate.

[6] = biological target: T3, P2Y12 receptor (UniProt Q9H244); assay: Two-electrode voltage-clamp of Xenopus oocytes expressing P2Y12 with Kir3.1 and 3.4: agonist-stimulated potassium currents; type: cell-based; settings: FIG. 1C; for EC50: Xenopus oocytes with Kir3.1 and 3.4, currents normalized to 10 μM ADP, Hill fit
T3 construct: EC50, potassium currents in oocytes; other: Xenopus oocytes with Kir3.1 and 3.4; currents normalized to 10 μM ADP; Hill; potency compared to ADP
Protocol: as §1, §2

[7] = biological target: T4, m2 muscarinic receptor (Homo sapiens, UniProt P08172); assay: Carbachol-activated Kir3.1/3.4 currents via m2 muscarinic receptor in the same oocytes; type: cell-based; settings: 1 mM, carbachol 1 μM, FIG. 2C
T4 construct: expressed in transfected cells; host or cells: Xenopus laevis oocytes injected with hm2 cRNA (1 ng) together with hP2Y12, Kir3.1 and Kir3.4
T4 sequence (P08172 1-466): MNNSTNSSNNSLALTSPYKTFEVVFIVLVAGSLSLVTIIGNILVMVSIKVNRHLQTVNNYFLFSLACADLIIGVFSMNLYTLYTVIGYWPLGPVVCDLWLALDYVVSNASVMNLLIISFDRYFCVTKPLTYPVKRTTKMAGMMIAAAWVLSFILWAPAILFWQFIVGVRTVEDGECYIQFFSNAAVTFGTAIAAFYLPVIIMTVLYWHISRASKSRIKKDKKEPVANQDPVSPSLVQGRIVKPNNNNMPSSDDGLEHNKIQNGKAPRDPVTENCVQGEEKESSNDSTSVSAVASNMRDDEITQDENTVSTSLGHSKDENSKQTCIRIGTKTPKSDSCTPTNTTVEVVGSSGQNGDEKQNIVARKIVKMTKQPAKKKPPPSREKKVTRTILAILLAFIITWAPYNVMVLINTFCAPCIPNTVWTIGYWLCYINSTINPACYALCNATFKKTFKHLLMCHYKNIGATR
Protocol: as §1
as §3, with “ADP (10 μM), carbachol (1 μM), and pCMBS (1 mM) were applied sequentially to an oocyte expressing both receptors concurrently with Kir3.1 and 3.4. Bars indicate periods of drug application (10 sec).” left out

T1 sequence (Q9H244 whole entry): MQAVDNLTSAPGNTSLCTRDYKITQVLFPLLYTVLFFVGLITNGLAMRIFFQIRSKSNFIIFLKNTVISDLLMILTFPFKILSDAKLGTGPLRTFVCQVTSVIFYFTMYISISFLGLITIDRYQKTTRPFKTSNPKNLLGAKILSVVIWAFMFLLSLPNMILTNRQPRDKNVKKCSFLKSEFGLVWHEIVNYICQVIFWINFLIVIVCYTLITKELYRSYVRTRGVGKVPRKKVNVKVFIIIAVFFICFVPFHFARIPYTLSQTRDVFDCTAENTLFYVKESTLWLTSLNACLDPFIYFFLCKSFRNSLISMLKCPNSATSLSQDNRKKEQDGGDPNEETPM
T2 sequence (Q9EPX4 whole entry): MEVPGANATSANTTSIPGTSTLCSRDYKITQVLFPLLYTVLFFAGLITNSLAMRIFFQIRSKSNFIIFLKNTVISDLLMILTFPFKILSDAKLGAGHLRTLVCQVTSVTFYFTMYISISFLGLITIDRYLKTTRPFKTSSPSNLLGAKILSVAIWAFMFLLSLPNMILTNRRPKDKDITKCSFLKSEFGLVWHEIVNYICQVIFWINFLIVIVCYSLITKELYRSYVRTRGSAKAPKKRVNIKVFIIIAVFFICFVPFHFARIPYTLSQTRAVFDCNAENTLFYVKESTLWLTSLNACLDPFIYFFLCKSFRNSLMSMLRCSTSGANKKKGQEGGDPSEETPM

## Nc1ncnc2c1ncn2[C@@H]1O[C@H](COP(O)(=S)OP(=O)(O)OP(=O)(O)O)[C@@H](O)[C@H]1O (stereo partly shown) [ATP-αS]
[1]
  agonist effect on potassium currents: weak agonist

## Nc1ncnc2c1ncn2[C@@H]1O[C@H](COP(=O)(O)O)[C@@H](OP(=O)(O)O)[C@H]1O [A3P5P]
[2]; human P2Y12, FIG. 2A
  inhibitory effect on the signal evoked by ADP: no inhibitory effect
[3]
  inhibitory effect on the signal evoked by ADP: no inhibitory effect
[4]; 300 μM
  competition of 1 nM [3H]2MeSADP binding to membranes from transfected cells: only little effect

## pertussis toxin
[5]; 30 ng/ml for 20 hrs, 10 μM ADP, FIG. 3C
  effect of pretreatment on ADP effects on forskolin-stimulated cAMP: abolished

## CSc1nc(N)c2ncn([C@@H]3O[C@H](COP(=O)(O)OP(=O)(O)O)[C@@H](O)[C@H]3O)c2n1 [2MeSADP]
[6]
  EC50: 0.9 nM
[6]; ratio of EC50s
  potency compared to ADP: 2 orders of magnitude

## Nc1ncnc2c1ncn2[C@@H]1O[C@H](COP(=O)(O)OP(=O)(O)O)[C@@H](O)[C@H]1O [ADP, adenosine 5′-diphosphate]
[6]
  EC50: 300 nM
[5]; 10 μM ADP, 10 μM forskolin, FIG. 3A
  maximum reduction of forskolin-stimulated cAMP levels: 47%

## O=S(=O)(O)c1cc[c]([Hg][Cl])cc1 [pCMBS, p-chloromercuriphenylsulfonic acid]
[2]; brief exposure, 1 mM, ADP 10 μM, FIG. 2C
  effect on ADP-evoked current responses: eliminated
[7]
  effect on activation of the signaling pathway by m2 muscarinic receptors: unaffected

## CSc1nc(N)c2ncn([C@@H]3O[C@H](COP(=O)(O)O)[C@@H](O)[C@H]3O)c2n1 [2MeSAMP]
[2]; antagonist 10 μM, FIG. 2A
  block of ADP (1 μM) responses: reversible block
[2]; oocytes expressing rat or human P2Y12 (FIG. 2B: hP2Y12), ADP 500 nM, read-out: IC50, block of ADP-induced K+ currents
  IC50: 1400 nM
[5]; antagonist 50 μM, 10 μM forskolin, FIG. 3B
  effect on repression of cAMP levels by 1 μM ADP: reversed
[5]; no agonist
  effect on forskolin-stimulated cAMP levels in the absence of agonist: Neither of these antagonists had effects
[4]; 50 μM
  competition of 1 nM [3H]2MeSADP binding to membranes from transfected cells: essentially to the level of untransfected cells
